Experimental data reported in PMC6257796, “Effects of Eupatilin and Jaceosidin on Cytochrome P450 Enzyme Activities in Human Liver Microsomes” (Molecules, 2010).

Assays:
Format in all cases: in vitro ADME
CYP1A2 [1] = target: T1, CYP1A2 (Homo sapiens, UniProt P05177); test: Cocktail probe assay in pooled human liver microsomes: phenacetin O-deethylation (IC50); conditions: 50 μM phenacetin
T1 construct: pooled human liver microsomes (0.25 mg/mL); tissue BD Gentest Co. H161; host or cells: pooled human liver microsomes
T1 sequence (P05177 1-516): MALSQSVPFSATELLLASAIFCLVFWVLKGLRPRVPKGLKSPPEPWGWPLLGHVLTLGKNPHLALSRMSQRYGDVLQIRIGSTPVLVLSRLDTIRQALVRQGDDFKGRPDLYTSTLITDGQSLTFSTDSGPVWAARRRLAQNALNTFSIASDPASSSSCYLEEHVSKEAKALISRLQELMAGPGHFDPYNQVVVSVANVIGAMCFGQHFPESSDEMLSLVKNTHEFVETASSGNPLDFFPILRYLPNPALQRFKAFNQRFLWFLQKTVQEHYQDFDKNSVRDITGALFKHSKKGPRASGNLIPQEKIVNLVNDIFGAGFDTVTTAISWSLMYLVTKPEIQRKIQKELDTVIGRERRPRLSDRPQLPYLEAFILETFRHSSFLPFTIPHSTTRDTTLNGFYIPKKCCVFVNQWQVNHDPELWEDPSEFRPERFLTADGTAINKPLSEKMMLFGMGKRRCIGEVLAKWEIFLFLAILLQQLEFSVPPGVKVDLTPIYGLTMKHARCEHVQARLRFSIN
Experimental: (§1) The inhibitory potencies (IC50 values) of eupatilin and jaceosidin were determined with CYP assays in the presence and absence of eupatilin and jaceosidin (final concentrations of 0.1−100 μM with acetonitrile concentration of less than 0.5% v/v) using pooled human liver microsomes. Phenacetin O-deethylase, coumarin 7-hydroxylase, amodiaquine N-deethylase, diclofenac hydroxylase, [S]-mephenytoin 4'-hydroxylase, bufuralol 1'-hydroxylase, and midazolam 1'-hydroxylase activities were determined as probe activities for CYP1A2, CYP2A6, CYP2C8, CYP2C9, CYP2C19, CYP2D6, and CYP3A, respectively, using cocktail incubation and tandem mass spectrometry. The incubation mixtures were prepared in a total volume of 200 μL as follows: pooled human liver microsomes (0.25 mg/mL), 1.3 mM NADPH, 3.3 mM MgCl2, 50 mM potassium phosphate buffer (pH 7.4), and a cocktail of probe substrates and various concentrations of eupatilin or jaceosidin (0.1−100 μM). […] After a 3 min preincubation at 37 °C, the reactions were initiated by adding NADPH and incubated for 20 min at 37 °C with shaking in a water bath. After incubation, the reaction was stopped by placing the tubes on ice and adding 100 μL of ice-cold acetonitrile containing internal standards (0.5 μg/mL [^13C,^15N]-acetaminophen for acetaminophen and N-desethylamodiaquine, 0.5 μg/mL [^2H5]-7-hydroxycoumarin for 7-hydroxycoumarin, 2.0 μg/mL [^13C6]-4-hydoxydiclofenac for 4-hydoxydiclofenac, 0.5 μg/mL [^2H3]-4'-hydoxymephenytoin for 4-hydoxymephenytoin and 1'-hydroxymidazolam, and 0.5 μg/mL [^2H7]-1'-hydroxybufuralol for 1'-hydroxybufuralol). The incubation mixtures were then centrifuged at 10,000× g for 5 min. All incubations were performedin triplicate.
(§2) To evaluate the effect of preincubation on inhibitory potency, eupatilin and jaceosidin (0.1−100 μM) were preincubated for 30 min with NADPH, buffer, and microsomes before the addition of the CYP probe substrates. The reaction was started by addition of the cocktail of probe substrates.
(§3) All seven metabolites produced from the cocktail of CYP isoform-specific substrates were simultaneously determined by LC/MS/MS. The system consisted of a tandem quadrupole mass spectrometer (TSQ Quantum Access, ThermoFisher Scientific, CA, USA) coupled with a Nanospace SI-2 LC system. The separation was performed on an Atlantis dC18 column (5 μm, 2.1 mm i.d. × 100 mm, Waters, Waltham, MA, USA) using the gradient elution of a mixture of 5% methanol in 0.1% formic acid (mobile phase A) and 95% methanol in 0.1% formic acid (mobile phase B) at a flow rate of 0.25 mL/min: 10% mobile phase B for 1 min, 10% to 95% mobile phase B for 1 min, 95% mobile phase B for 5 min. […] Quantification was performed by selected reaction monitoring (SRM) of the [M+H]^+ ion and the related product ion for each metabolite. […]

CYP2A6 = target: T2, CYP2A6 (Homo sapiens, UniProt P11509); test: Cocktail probe assay in pooled human liver microsomes: coumarin 7-hydroxylation (IC50); conditions: for IC50, coumarin 7-hydroxylation (CYP2A6): pooled human liver microsomes, 2.5 μM coumarin
T2 construct: pooled human liver microsomes (0.25 mg/mL); tissue BD Gentest Co. H161; host or cells: pooled human liver microsomes
T2 sequence (P11509 1-494): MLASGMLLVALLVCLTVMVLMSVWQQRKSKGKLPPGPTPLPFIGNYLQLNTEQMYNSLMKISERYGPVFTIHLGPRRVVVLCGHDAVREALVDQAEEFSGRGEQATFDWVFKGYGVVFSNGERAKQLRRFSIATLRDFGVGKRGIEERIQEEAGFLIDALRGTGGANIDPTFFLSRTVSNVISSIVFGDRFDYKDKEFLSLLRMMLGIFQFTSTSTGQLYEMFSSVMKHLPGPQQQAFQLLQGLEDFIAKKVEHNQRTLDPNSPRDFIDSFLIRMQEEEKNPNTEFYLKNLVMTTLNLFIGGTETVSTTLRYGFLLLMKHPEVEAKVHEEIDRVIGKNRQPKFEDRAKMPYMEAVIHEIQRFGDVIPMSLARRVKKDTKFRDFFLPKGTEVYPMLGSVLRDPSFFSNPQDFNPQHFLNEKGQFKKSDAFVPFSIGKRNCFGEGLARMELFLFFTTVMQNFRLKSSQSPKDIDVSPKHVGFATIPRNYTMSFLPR
Experimental: as §1, §2
(§4) All seven metabolites produced from the cocktail of CYP isoform-specific substrates were simultaneously determined by LC/MS/MS. The system consisted of a tandem quadrupole mass spectrometer (TSQ Quantum Access, ThermoFisher Scientific, CA, USA) coupled with a Nanospace SI-2 LC system. The separation was performed on an Atlantis dC18 column (5 μm, 2.1 mm i.d. × 100 mm, Waters, Waltham, MA, USA) using the gradient elution of a mixture of 5% methanol in 0.1% formic acid (mobile phase A) and 95% methanol in 0.1% formic acid (mobile phase B) at a flow rate of 0.25 mL/min: 10% mobile phase B for 1 min, 10% to 95% mobile phase B for 1 min, 95% mobile phase B for 5 min. The column and autosampler temperatures were 50 °C and 4 °C, respectively. After 1.5 min, the LC eluant was diverted from waste to the mass spectrometer that was fitted with an electrospray ionization (ESI) source and operated in the positive ion mode. The ESI source settings for the ionization of the metabolites were as follows: electrospray voltage, 5.0 kV; vaporizer temperature, 420 °C; capillary temperature 360 °C; sheath gas pressure, 35 psi; auxiliary gas pressure, 10 psi. Quantification was performed by selected reaction monitoring (SRM) of the [M+H]^+ ion and the related product ion for each metabolite. The analytical data were processed using Xcalibur® software (ThermoFisher Scientific).
(§5) The IC50 values (concentration of inhibitor causing 50% inhibition of the original enzyme activity) were calculated using WinNonlin software, a non-linear regression analysis program (Pharsight, Mountain View, CA, USA). The apparent kinetic parameters for inhibitory potential (Ki values) were estimated from the fitted curves using Enzyme Kinetics Ver. 1.3 program (Systat Software Inc., San Jose, CA, USA).

CYP2C8 [2] = target: T3, CYP2C8 (Homo sapiens, UniProt P10632); test: Cocktail probe assay in pooled human liver microsomes: amodiaquine N-deethylation (IC50); conditions: 2.0 μM amodiaquine, no preincubation
T3 construct: pooled human liver microsomes (0.25 mg/mL); tissue BD Gentest Co. H161; host or cells: pooled human liver microsomes
T3 sequence (P10632 1-490): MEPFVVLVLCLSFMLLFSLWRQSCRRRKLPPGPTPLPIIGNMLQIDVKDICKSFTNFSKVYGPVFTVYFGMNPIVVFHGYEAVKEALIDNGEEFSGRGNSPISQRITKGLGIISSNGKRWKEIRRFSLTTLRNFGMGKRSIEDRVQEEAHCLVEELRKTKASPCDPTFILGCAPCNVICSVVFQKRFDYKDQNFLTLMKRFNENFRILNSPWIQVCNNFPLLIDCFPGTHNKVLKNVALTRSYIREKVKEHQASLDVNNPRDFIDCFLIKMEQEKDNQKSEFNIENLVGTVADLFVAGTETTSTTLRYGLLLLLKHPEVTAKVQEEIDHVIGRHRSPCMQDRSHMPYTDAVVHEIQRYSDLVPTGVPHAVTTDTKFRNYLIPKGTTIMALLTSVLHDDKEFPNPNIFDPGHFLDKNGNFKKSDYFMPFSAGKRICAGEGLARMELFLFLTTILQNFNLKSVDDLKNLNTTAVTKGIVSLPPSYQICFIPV
Experimental: as §1, with “After incubation, the reaction was stopped by placing the tubes on ice and adding 100 μL of ice-cold acetonitrile containing internal standards (0.5 μg/mL [^13C,^15N]-acetaminophen for acetaminophen and N-desethylamodiaquine, 0.5 μg/mL [^2H5]-7-hydroxycoumarin for 7-hydroxycoumarin, 2.0 μg/mL [^13C6]-4-hydoxydiclofenac for 4-hydoxydiclofenac, 0.5 μg/mL [^2H3]-4'-hydoxymephenytoin for 4-hydoxymephenytoin and 1'-hydroxymidazolam, and 0.5 μg/mL [^2H7]-1'-hydroxybufuralol for 1'-hydroxybufuralol). The incubation mixtures were then centrifuged at 10,000× g for 5 min. All incubations were performedin triplicate.” left out
All seven metabolites produced from the cocktail of CYP isoform-specific substrates were simultaneously determined by LC/MS/MS. […] Quantification was performed by selected reaction monitoring (SRM) of the [M+H]^+ ion and the related product ion for each metabolite. […]

CYP2C9 [3] = target: T4, CYP2C9 (Homo sapiens, UniProt P11712); test: Cocktail probe assay in pooled human liver microsomes: diclofenac 4-hydroxylation (IC50); conditions: 10 μM diclofenac
T4 construct: pooled human liver microsomes (0.25 mg/mL); tissue BD Gentest Co. H161; host or cells: pooled human liver microsomes
Experimental: as §1, §2, §3

CYP2C19 [4] = target: T5, CYP2C19 (Homo sapiens, UniProt P33261); test: Cocktail probe assay in pooled human liver microsomes: [S]-mephenytoin 4'-hydroxylation (IC50); conditions: 50 μM [S]-mephenytoin
T5 construct: pooled human liver microsomes (0.25 mg/mL); tissue BD Gentest Co. H161; host or cells: pooled human liver microsomes
Experimental: as §1, §2, §3

CYP2D6 [5] = target: T6, CYP2D6 (Homo sapiens, UniProt P10635); test: Cocktail probe assay in pooled human liver microsomes: bufuralol 1'-hydroxylation (IC50); conditions: 5.0 μM bufuralol
T6 construct: pooled human liver microsomes (0.25 mg/mL); tissue BD Gentest Co. H161; host or cells: pooled human liver microsomes
Experimental: as §1, §2, §3

CYP3A = test: Cocktail probe assay in pooled human liver microsomes: midazolam 1'-hydroxylation (IC50); conditions: for IC50, midazolam 1'-hydroxylation (CYP3A): pooled human liver microsomes, 2.5 μM midazolam
Experimental: as §1, §2, §4, §5

CYP1A2 [6] = target: T1, CYP1A2; test: Kinetic analysis (Ki, inhibition type) in human liver microsomes: phenacetin O-deethylation; conditions: pooled human liver microsomes
Experimental: (§6) The Ki values and inhibition types (competitive, noncompetitive, uncompetitive, or mixed) were determined for eupatilin and jaceosidin using Lineweaver plots, Dixon plots, and secondary reciprocal plots.
(§7) The reactions were initiated by addition of NADPH at 37 °C and stopped after 15 min by placing the incubation tubes on ice and adding 100 μL of ice-cold methanol containing an internal standard. The incubation mixtures were centrifuged at 10,000' g for 5 min, and aliquots (5 μL) of the supernatants were analyzed by liquid chromatography/tandem mass spectrometry (LC/MS/MS).
as §4, §5

CYP2C8 [7] = target: T3, CYP2C8; test: Kinetic analysis (Ki, inhibition type) in human liver microsomes: amodiaquine N-deethylation; conditions: pooled human liver microsomes
Experimental: as §6, §7, §4, §5

CYP2C9 [8] = target: T4, CYP2C9; test: Kinetic analysis (Ki, inhibition type) in human liver microsomes: diclofenac 4-hydroxylation; conditions: pooled human liver microsomes
Experimental: as §6, §7, §4, §5

CYP2C19 [9] = target: T5, CYP2C19; test: Kinetic analysis (Ki, inhibition type) in human liver microsomes: [S]-mephenytoin 4'-hydroxylation; conditions: pooled human liver microsomes; for Inhibition type, S-mephenytoin 4'-hydroxylation (CYP2C19): Lineweaver, Dixon and secondary reciprocal plots
Experimental: as §6, §7, §4, §5

CYP2D6 [10] = target: T6, CYP2D6; test: Kinetic analysis (Ki, inhibition type) in human liver microsomes: bufuralol 1'-hydroxylation; conditions: pooled human liver microsomes
Experimental: as §6, §7, §4, §5

[11] = with 30 min preincubation in presence of NADPH
[12] = Lineweaver, Dixon and secondary reciprocal plots

T4 sequence (P11712 whole entry): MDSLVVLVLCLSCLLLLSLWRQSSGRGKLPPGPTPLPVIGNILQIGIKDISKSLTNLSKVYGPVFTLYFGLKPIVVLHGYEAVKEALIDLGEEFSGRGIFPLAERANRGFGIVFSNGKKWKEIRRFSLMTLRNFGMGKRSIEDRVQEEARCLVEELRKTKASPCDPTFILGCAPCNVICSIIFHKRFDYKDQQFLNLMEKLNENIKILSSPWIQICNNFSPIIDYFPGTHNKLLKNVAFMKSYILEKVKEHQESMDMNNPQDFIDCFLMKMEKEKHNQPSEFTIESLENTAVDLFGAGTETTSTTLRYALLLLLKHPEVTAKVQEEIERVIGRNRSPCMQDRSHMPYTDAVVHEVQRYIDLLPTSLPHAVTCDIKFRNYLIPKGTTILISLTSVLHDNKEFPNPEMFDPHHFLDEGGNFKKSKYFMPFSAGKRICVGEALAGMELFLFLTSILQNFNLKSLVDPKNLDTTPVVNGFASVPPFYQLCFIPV
T6 sequence (P10635 whole entry): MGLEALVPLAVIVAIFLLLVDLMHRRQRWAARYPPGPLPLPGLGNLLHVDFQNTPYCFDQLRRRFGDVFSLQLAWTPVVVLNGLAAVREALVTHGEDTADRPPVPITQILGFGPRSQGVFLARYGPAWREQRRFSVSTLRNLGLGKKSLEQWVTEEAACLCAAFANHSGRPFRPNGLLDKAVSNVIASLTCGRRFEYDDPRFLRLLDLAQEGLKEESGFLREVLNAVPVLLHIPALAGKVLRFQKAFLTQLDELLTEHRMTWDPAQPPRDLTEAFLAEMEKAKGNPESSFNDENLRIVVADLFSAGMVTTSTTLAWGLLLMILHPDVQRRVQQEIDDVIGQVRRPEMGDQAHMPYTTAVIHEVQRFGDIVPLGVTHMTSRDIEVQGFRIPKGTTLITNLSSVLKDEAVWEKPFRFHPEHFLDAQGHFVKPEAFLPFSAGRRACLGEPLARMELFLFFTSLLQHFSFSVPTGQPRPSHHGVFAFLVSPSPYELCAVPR
T5 sequence (P33261 whole entry): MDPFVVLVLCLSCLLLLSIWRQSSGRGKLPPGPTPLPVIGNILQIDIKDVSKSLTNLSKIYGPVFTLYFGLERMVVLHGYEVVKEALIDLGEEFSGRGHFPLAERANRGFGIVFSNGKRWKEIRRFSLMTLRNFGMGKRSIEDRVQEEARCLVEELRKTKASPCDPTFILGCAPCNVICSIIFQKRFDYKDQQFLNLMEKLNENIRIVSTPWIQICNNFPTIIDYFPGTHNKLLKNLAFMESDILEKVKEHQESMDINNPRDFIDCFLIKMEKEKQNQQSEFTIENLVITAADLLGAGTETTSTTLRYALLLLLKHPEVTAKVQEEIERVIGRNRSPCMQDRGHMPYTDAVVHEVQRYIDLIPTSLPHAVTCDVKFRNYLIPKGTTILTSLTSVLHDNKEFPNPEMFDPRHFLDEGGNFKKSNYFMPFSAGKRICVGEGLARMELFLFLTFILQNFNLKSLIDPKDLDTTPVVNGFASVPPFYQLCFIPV

## COc1ccc(-c2cc(=O)c3c(O)c(OC)c(O)cc3o2)cc1OC [eupatilin, 2-(3,4-dimethoxyphenyl)-5,7-dihydroxy-6-methoxychromen-4-one]
CYP1A2 [1]; no preincubation
  IC50: 9.4 ± 1.5 µM
CYP1A2 [1]; [11]
  IC50: 11.8 ± 1.3 µM
CYP2A6; 100 μM, human liver microsomes
  Inhibition of CYP2A6-catalyzed coumarin 7-hydroxylation at the highest concentration tested: negligible inhibition
CYP2A6; no preincubation
  IC50, coumarin 7-hydroxylation (CYP2A6): No inhibition
CYP2A6; [11]
  IC50, coumarin 7-hydroxylation (CYP2A6): No inhibition
CYP2C8 [2]
  IC50: > 100 µM
CYP2C9 [3]; no preincubation
  IC50: 4.1 ± 0.49 µM
CYP2C9 [3]; [11]
  IC50: 4.9 ± 0.91 µM
CYP2C19 [4]; no preincubation
  IC50: 48.1 ± 12 µM
CYP2C19 [4]; [11]
  IC50: 57.7 ± 16.3 µM
CYP2D6 [5]; no preincubation
  IC50: 58.7 ± 7.6 µM
CYP2D6 [5]; [11]
  IC50: 79.1 ± 7.5 µM
CYP3A; 100 μM, human liver microsomes
  Inhibition of CYP3A4-catalyzed midazolam 1'-hydroxylation at the highest concentration tested: negligible inhibition
CYP3A; no preincubation
  IC50, midazolam 1'-hydroxylation (CYP3A): No inhibition
CYP3A; [11]
  IC50, midazolam 1'-hydroxylation (CYP3A): No inhibition
CYP1A2 [6]; 10-100 μM phenacetin
  Ki: 2.3 ± 0.18 µM
CYP1A2 [6]; [12]
  Inhibition type, phenacetin O-deethylation (CYP1A2): competitive
CYP2C8 [7]; 0.5-5 μM amodiaquine
  Ki: 102 ± 8.9 µM
CYP2C8 [7]; [12]
  Inhibition type, amodiaquine N-deethylation (CYP2C8): competitive
CYP2C9 [8]; 1-50 μM diclofenac
  Ki: 1.6 ± 0.17 µM
CYP2C9 [8]; [12]
  Inhibition type, diclofenac 4-hydroxylation (CYP2C9): mixed
CYP2C19 [9]; 10-100 μM [S]-mephenytoin
  Ki: 28.7 ± 3.6 µM
CYP2C19 [9]
  Inhibition type, S-mephenytoin 4'-hydroxylation (CYP2C19): mixed
CYP2C19 [9]; listed as Eupatilin
  Inhibition type, S-mephenytoin 4'-hydroxylation (CYP2C19): mixed-type
CYP2D6 [10]; 0.5-5 μM bufuralol
  Ki: 94.6 ± 5.8 µM
CYP2D6 [10]; [12]
  Inhibition type, bufuralol 1'-hydroxylation (CYP2D6): competitive
